Measured values as given in ChEMBL document CHEMBL4425118, “Potential Treatment for Neuropsychiatry Disorders with TRPC5 Modulators” (ACS Med Chem Lett, 2016).

What was measured:
[1] = target: T1, Short transient receptor potential channel 5 (Homo sapiens, UniProt Q9UL62); assay: Inhibition of TRPC5 (unknown origin) transfected in HEK293/TREx cells assessed as blocking of inward/outward currents after 20 to 48 hrs in presence of LaCl3 by patch clamp assay; type: cell-based
T1 sequence (Q9UL62 whole entry): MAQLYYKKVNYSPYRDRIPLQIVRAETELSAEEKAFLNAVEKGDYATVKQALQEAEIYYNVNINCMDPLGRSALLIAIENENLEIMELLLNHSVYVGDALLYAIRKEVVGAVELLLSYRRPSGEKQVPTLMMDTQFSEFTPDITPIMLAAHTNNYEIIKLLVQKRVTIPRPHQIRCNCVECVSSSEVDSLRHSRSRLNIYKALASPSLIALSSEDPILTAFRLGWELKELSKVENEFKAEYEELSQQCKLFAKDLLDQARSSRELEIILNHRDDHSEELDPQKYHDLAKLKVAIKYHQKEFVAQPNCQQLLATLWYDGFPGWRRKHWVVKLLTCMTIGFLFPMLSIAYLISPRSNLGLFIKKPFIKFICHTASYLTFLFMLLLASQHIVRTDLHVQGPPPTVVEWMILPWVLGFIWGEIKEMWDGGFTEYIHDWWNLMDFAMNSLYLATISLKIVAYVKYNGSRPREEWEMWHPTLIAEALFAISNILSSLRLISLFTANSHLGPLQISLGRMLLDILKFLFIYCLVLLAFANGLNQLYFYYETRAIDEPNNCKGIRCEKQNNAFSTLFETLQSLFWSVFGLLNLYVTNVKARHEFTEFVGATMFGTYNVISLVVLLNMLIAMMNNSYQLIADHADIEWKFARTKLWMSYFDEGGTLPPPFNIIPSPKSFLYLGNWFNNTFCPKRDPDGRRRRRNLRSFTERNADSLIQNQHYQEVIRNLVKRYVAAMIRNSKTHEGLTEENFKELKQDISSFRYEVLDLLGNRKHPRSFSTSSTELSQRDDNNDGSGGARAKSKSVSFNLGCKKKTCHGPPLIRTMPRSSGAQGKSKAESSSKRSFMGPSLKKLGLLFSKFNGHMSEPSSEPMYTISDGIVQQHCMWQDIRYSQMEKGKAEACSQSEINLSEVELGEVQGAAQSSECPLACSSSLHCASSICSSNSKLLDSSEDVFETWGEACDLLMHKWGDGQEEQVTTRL

[2] = target: T1, Short transient receptor potential channel 5; assay: Inhibition of TRPC5 (unknown origin) transfected in HEK293/TREx cells assessed as reduction of rise in intracellular Ca2+ concentration after 60 to 80 mins by Fluo4 cell-based fluorescence assay

IC50 [1] | Compound | IC50 [2]
< 1 nM | CCCCOc1ccc2c(c1Cc1ccc(F)cc1)c(=O)n(CCCO)c(=O)n2C | < 1 nM
23.3 nM | COc1ccc2c(c1Cc1ccccc1)c(=O)n(CCCO)c(=O)n2C | –
8.37 nM | COc1ccc2c(c1Cc1ccc(F)cc1)c(=O)n(CCCO)c(=O)n2C | > 100 nM

More lines, now with the values behind:

Compound | IC50 [1] | IC50 [2]
Cn1c(=O)n(CCCO)c(=O)c2c(Cc3ccccc3)c(-c3cccc(OC(F)(F)F)c3)ccc21 | 5.3 nM | –
CC(C)Oc1ccc2c(c1Cc1ccc(F)cc1)c(=O)n(CCCO)c(=O)n2C | 9 nM | 2.64 nM
Cn1c(=O)n(CCCO)c(=O)c2c(Cc3ccccc3)c(Oc3cccc(OC(F)(F)F)c3)ccc21 | < 1 nM | 2.69 nM
